Converted amounts (≈) assume the structure as drawn. Values belong to the compound of their own block, whether it stands above or below them. The source made the active and inactive calls. The rule behind the calls is not given here.
How the values were obtained:
[1] = Vasocontractile activity in gerbil colon assessed as smooth muscle contractile response relative to PGF2alpha; format: functional, Gerbillinae, Muscle tissue
[2] = Vasocontractile activity in rabbit aorta assessed as smooth muscle contractile response relative to PGE2; format: functional, Oryctolagus cuniculus, Muscle tissue
[3] = system: Platelet; experiment: Induction of irreversible platelet aggregation in human citrated platelet-rich plasma at 100 to 250 ng/ml; format: functional
[4] = Retardation factor of the compound using CHCl3-EtOAc-HOAc at ratio of 50:50:1 as solvent system by thin layer chromatography; format: physicochemical
[5] = Vasocontractile activity in dog lateral saphenous vein assessed as smooth muscle contractile response relative to PGF2alpha; format: functional, Canis lupus familiaris
[6] = (§1) Vasocontractile activity in dog lateral saphenous vein assessed as smooth muscle contractile response; format: functional; details: Canis lupus familiaris, read-out: ED50 (the source's name)
[7] = Stability of the compound in Krebs solution at pH 8.2 at 4 degC after 1 week; format: physicochemical; details: buffer, pH 8.2, 168 h
[8] = system: Platelet; experiment: Induction of platelet aggregation in human citrated platelet-rich plasma assessed as internal contractile response with granules being squeezed into cell centre surrounded closely by microtubules and contractile microfilaments by transmission electron microscopy; format: functional
[9] = species on record: Canis lupus familiaris; experiment: as §1; format: functional
[10] = Vasocontractile activity in dog lateral saphenous vein assessed as smooth muscle contractile response in presence of PG synthase inhibitor indomethacin; format: functional, tissue-based; details: Canis lupus familiaris
[11] = system: Gerbillinae; experiment: Vasocontractile activity in gerbil colon assessed as smooth muscle contractile response; format: functional, tissue-based; details: Muscle tissue
[12] = species on record: Oryctolagus cuniculus; experiment: Vasocontractile activity in rabbit aorta assessed as smooth muscle contractile response; format: functional, tissue-based; details: Muscle tissue
[13] = system: Platelet; experiment: Induction of reversible platelet aggregation in human citrated platelet-rich plasma at 0.7 to 4 ug/ml; format: functional
[14] = system: Platelet; experiment: Induction of irreversible platelet aggregation in human citrated platelet-rich plasma at 5 to 10 ug/ml; format: functional
[15] = system: Platelet; experiment: Induction of platelet aggregation in human citrated platelet-rich plasma in presence of 10 ug/ml PG synthase inhibitor indomethacin; format: functional

Compound: CCCCC[C@@H](/C=C/[C@@H]1[C@@H](C/C=C\CCCC(=O)O)[C@H]2C[C@H]1OO2)OO
- Activity [1]: 1.5%
- Activity [2]: 80%
- Activity [3]: Active

- Rf [4]: 0.49
Compound: CCCCC[C@H](O)/C=C/[C@@H]1[C@@H](C/C=C\CCCC(=O)O)[C@@H]2C[C@H]1OC(C)O2 (mixture of isomers)

- EC50 [6]: 5.8 ng/mL (≈ 0.0152 µM)
- Stability [7]: Stable
- Rf [4]: 0.53
Compound: CCCCC[C@H](O)/C=C/[C@@H]1[C@@H](C/C=C\CCCC(=O)O)[C@@H]2C[C@H]1OC(C)O2 (stereo in doubt; 1a) [listing 1 of 2 here]
- Activity [1]: 0.12%
- Activity [2]: 19%
- Activity [5]: 32%

Compound: CCCCC[C@H](O)/C=C/[C@@H]1[C@@H](C/C=C\CCCC(=O)O)[C@@H]2C[C@H]1OC(C)O2 (stereo in doubt; 1a) [listing 2 of 2 here]
- Activity [8]: Active
- Activity [9]: Dose-dependent effect
- Activity [10]: Active
- Activity [11]: Dose-dependent effect
- Activity [12]: Dose-dependent effect
- Activity [13]: Active
- Activity [14]: Active
- Activity [15]: Active

— ChEMBL document CHEMBL3272252, “A novel prostaglandin endoperoxide mimic, prostaglandin F2alpha acetal” (J Med Chem, 1977)
